Test results as given in patent publication US20210169953A1, “COMPOSITION FOR TYPE IV ALLERGY” (SONE FARM CO., LTD, priority 2018, published 2021).
“And” between values parts separate entries of the source, which are not always exact repeats. Equal values may be shown once.

System: picryl chloride-induced mouse contact dermatitis model
Test: Suppression action on mouse contact dermatitis model by application on the auricle (auricle thickness)
Format: in vivo, mouse (male BALB/cA Jcl)
Experimental: From the supernatant of a culture broth obtained by cultivating the strain IJH-SONE68 in modified-SDM medium, exopolysaccharides produced by the strain were purified by the method disclosed in Example 2 to be supplied to experiments (1 mg/mL). The same concentration was used for a dipotassium glycyrrhizinate aqueous solution used as a control of an existing anti-inflammatory drug.
The mice used were male BALB/cA Jcl mice (7-week old at the time of arrival, CLEA Japan, Inc.). Five mice were housed in a breeding cage and bred in an animal breeding room in which environment was adjusted to temperature of 20 to 26° C., humidity of 40 to 60%, and lighting time of 12 hours (8:00 to 20:00). The mice were allowed to freely ingest solid feed MF (Oriental Yeast Co., Ltd.). In addition, with regard to a drinking water, the mice were allowed to freely ingest a purified water.
After carried in the cage, the mice were acclimated for 7 days. […]
On Day 6, the thickness of right auricle of the mice was measured in advance with a caliper, and then an allergic reaction was induced by applying 20 μL of a 1 w/v % picryl chloride solution on the front and back of the right auricle. […] Eighteen hours later (Day 7), the thickness of the auricle was measured, and the difference before and after the induction (A auricle thickness [mm]) was compared among the groups. […] Tukey's test or t test by Welch's method was used for a significant difference test among the groups, and it was determined that there was a significant difference when a risk factor (p value) was less than 0.05.

CC1(C)[C@@H](O[C@H]2O[C@H](C(=O)[O-])[C@@H](O)[C@H](O)[C@H]2O[C@@H]2O[C@H](C(=O)[O-])[C@@H](O)[C@H](O)[C@H]2O)CC[C@]2(C)[C@H]3C(=O)C=C4[C@@H]5C[C@@](C)(C(=O)O)CC[C@]5(C)CC[C@@]4(C)[C@]3(C)CC[C@@H]12.[K+].[K+] [dipotassium glycyrrhizinate]
Increase in auricle thickness due to inflammation vs control group (FIG. 7, Tukey test) (application, p<0.1): tended to be suppressed
Increased amount of auricle thickness, Average (group average, 20 μL of 1 mg/mL sample applied on right auricle 2 h after induction, measured 18 h later, control 0.28): 0.184 mm
Increased amount of auricle thickness, each mouse (individual mice, 20 μL of 1 mg/mL sample applied on right auricle 2 h after induction, measured 18 h later): 0.20 mm and 0.06 mm and 0.22 mm (3×)
